Measurements as given in ChEMBL document CHEMBL3217457, “Carbazolepyrrolo[2,1-c][1,4]benzodiazepine conjugates: design, synthesis, and biological evaluation” (Medchemcomm, 2011).
Calls of active or inactive are those of the source. No cut-off for these calls is given here.

Assays:
PC-3 [1] = assay: Growth inhibition of human PC3 cells; type: functional
A549 = assay: Growth inhibition of human A549 cells; type: functional
KB = assay: Growth inhibition of human KB cells; type: functional
[2] = Growth inhibition of human Gurav cells; type: functional
A2780 = assay: Growth inhibition of human A2780 cells; type: functional
SiHa = assay: Growth inhibition of human SiHa cells; type: functional
ZR-75-1 = assay: Growth inhibition of human ZR-75-1 cells; type: functional
MCF7 [3] = assay: Cytotoxicity against human MCF7 cells assessed as decrease in cell viability at 2 to 16 uM after 6 to 48 hrs by MTT assay; type: functional, cell-based
MCF7 [4] = assay: Cytotoxicity against human MCF7 cells assessed as decrease in cell viability at 4 uM after 24 hrs by MTT assay; type: functional, cell-based
MCF7 [5] = assay: Cytotoxicity against human MCF7 cells by ATP-dependent cell viability assay; type: functional, cell-based
MCF7 [6] = assay: Cell cycle arrest in human MCF7 cells assessed as accumulation at G0 phase at 4 uM after 24 hrs by propidium iodide staining based flow cytometry (reference value: 2.77%); type: functional
MCF7 [7] = assay: Cell cycle arrest in human MCF7 cells assessed as accumulation at G1 phase at 4 uM after 24 hrs by propidium iodide staining based flow cytometry (reference value: 57.98%); type: functional
MCF7 [8] = assay: Cell cycle arrest in human MCF7 cells assessed as accumulation at S phase at 4 uM after 24 hrs by propidium iodide staining based flow cytometry (reference value: 14.30%); type: functional
MCF7 [9] = assay: Cell cycle arrest in human MCF7 cells assessed as accumulation at G2/M phase at 4 uM after 24 hrs by propidium iodide staining based flow cytometry (reference value: 24.95%); type: functional
MCF7 [10] = assay: Cell cycle arrest in human MCF7 cells assessed as accumulation at G0/G1 phase at 4 uM after 24 hrs by propidium iodide staining based flow cytometry (reference value: 60.75%); type: functional
MCF7 [11] = assay: Induction of apoptosis in human MCF7 cells assessed as Apoalert DNA fragmentation at 4 uM after 24 hrs by TUNEL assay; type: functional, cell-based
MCF7 [12] = assay: Antiproliferative activity against human MCF7 cells assessed as cell proliferation at 4 uM after 24 hrs by BrdU incorporation assay (reference value: 100%); type: functional; details: MCF7, 24 h, read-out: Activity
MCF7 [13] = assay: Downregulation of cyclin D1 protein expression in human MCF7 cells at 2 to 4 uM after 24 hrs by Western blot analysis; type: functional, cell-based
MCF7 [14] = assay: Upregulation of p53 protein expression in human MCF7 cells at 4 uM after 24 hrs by Western blot analysis; type: functional, cell-based
MCF7 [15] = assay: Upregulation of Bax protein expression in human MCF7 cells at 4 uM after 24 hrs by Western blot analysis; type: functional, cell-based
MCF7 [16] = assay: Downregulation of c-Jun protein expression in human MCF7 cells at 4 uM after 24 hrs by Western blot analysis; type: functional, cell-based
MCF7 [17] = assay: Downregulation of Jun B protein expression in human MCF7 cells at 4 uM after 24 hrs by Western blot analysis; type: functional, cell-based
MCF7 [18] = assay: Downregulation of CREB protein expression in human MCF7 cells at 4 uM after 24 hrs by Western blot analysis; type: functional, cell-based
MCF7 [19] = assay: Downregulation of CDK4 protein expression in human MCF7 cells at 4 uM after 24 hrs by Western blot analysis; type: functional, cell-based
MCF7 [20] = assay: Upregulation of JNK1/2 protein expression in human MCF7 cells at 4 uM after 24 hrs by Western blot analysis; type: functional, cell-based
MCF7 [21] = assay: Upregulation of PARP protein expression in human MCF7 cells at 4 uM after 24 hrs by Western blot analysis; type: functional, cell-based
MCF7 [22] = assay: Induction of apoptosis in human MCF7 cells assessed as procaspase-7 cleavage at 4 uM after 24 hrs by Western blot analysis; type: functional, cell-based
MCF7 [23] = assay: Induction of apoptosis in human MCF7 cells assessed as pRb protein expression at 4 uM after 24 hrs by Western blot analysis; type: functional, cell-based
PC-3 [24] = assay: Anticancer activity against human PC3 cells xenografted in NOD-SCID mouse assessed as decrease in tumor weight at 20 mg/kg, iv q4d on days 1, 5 and 9; type: functional, organism-based; design: dose 20 mg/kg
PC-3 [25] = assay: Anticancer activity against human PC3 cells xenografted in NOD-SCID mouse assessed as decrease in tumor volume at 20 mg/kg, iv q4d on days 1, 5 and 9; type: functional, organism-based; design: dose 20 mg/kg
[26] = Toxicity in iv dosed NOD-SCID mouse xenografted with human PC3 cells assessed as maximum tolerated dose administered q4d on days 1, 5 and 9; type: organism-based, PC-3; details: in vivo
Mus musculus [27] = assay: Toxicity in NOD-SCID mouse xenografted with human PC3 cells assessed as weight loss at 20 mg/kg, iv q4d on days 1, 5 and 9; type: organism-based, PC-3; design: dose 20 mg/kg, route intravenous; details: in vivo
Mus musculus [28] = assay: Toxicity in NOD-SCID mouse xenografted with human PC3 cells assessed as mortality at 20 mg/kg, iv q4d on days 1, 5 and 9; type: organism-based, PC-3; design: dose 20 mg/kg, route intravenous; details: in vivo
Calf thymus DNA = assay: Binding affinity to calf thymus DNA assessed as change in melting temperature at compound to DNA ratio of 1:5 after 18 hrs by thermal denaturation analysis; type: nucleic-acid assay; details: Bos taurus
HOP-62 = assay: Growth inhibition of human HOP62 cells; type: functional
COLO 205 = assay: Growth inhibition of human COLO205 cells; type: functional
MCF7 [29] = assay: Growth inhibition of human MCF7 cells; type: functional

Compound: COc1ccc(-c2ccc3c(c2)c2cc(-c4ccc(OC)cc4)ccc2n3CCCCN2CCN(CCCCOc3cc4c(cc3OC)C(=O)N3CCC[C@H]3C=N4)CC2)cc1
- GI50 (PC-3 [1]): 0.01 µM
- GI50 (A549): 0.09 µM
- GI50 (KB): 0.1 µM
- GI50 [2]: 0.11 µM
- GI50 (A2780): 0.01 µM
- GI50 (SiHa): 0.11 µM
- GI50 (ZR-75-1): 0.12 µM
- inhibition (MCF7 [3]): Active
- inhibition (MCF7 [4]): Active
- inhibition (MCF7 [5]): Active
- Activity (MCF7 [6]): 25.31%
- Activity (MCF7 [7]): 63.03%
- Activity (MCF7 [8]): 5.44%
- Activity (MCF7 [9]): 6.2%
- Activity (MCF7 [10]): 88.34%
- Activity (MCF7 [11]): Active
- growth at 4 µM (MCF7 [12]): 28%
- inhibition (MCF7 [13]): Active
- Activity (MCF7 [14]): Active
- Activity (MCF7 [15]): Active
- inhibition (MCF7 [16]): Active
- inhibition (MCF7 [17]): Active
- inhibition (MCF7 [18]): Active
- inhibition (MCF7 [19]): Active
- Activity (MCF7 [20]): Active
- Activity (MCF7 [21]): Active
- Activity (MCF7 [22]): Active
- Activity (MCF7 [23]): Active
- inhibition (PC-3 [24]): Active
- inhibition (PC-3 [25]): Active
- MTD [26]: < 50 mg/kg
- Activity (Mus musculus [27]): Non-toxic
- Activity (Mus musculus [28]): Non-toxic
- ΔTm (Calf thymus DNA): 10.2 °C
- GI50 (HOP-62): 0.01 µM
- GI50 (COLO 205): 0.07 µM
- GI50 (MCF7 [29]): 0.01 µM
